“And” between values parts separate entries of the source, which are not always exact repeats. Equal values may be shown once.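 Following 48 hours of exposure in 96-well plates, responses at five concentrations were used to interpolate endpoints linearly. The concentration for 50% growth inhibition is given as GI50. TGI: concentration producing complete growth inhibition.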
Key:
Assay in all cases: NCI anticancer screen, dose series, 48 h
TK-10 renal = tested on: TK-10 renal
RXF 393 renal = tested on: RXF 393 renal
MALME-3M melanoma = tested on: MALME-3M melanoma
KM12 colon = tested on: KM12 colon
A549 NSCLC = tested on: A549 NSCLC
SR leukemia = tested on: SR leukemia
HCT-116 colon = tested on: HCT-116 colon
HCC-2998 colon = tested on: HCC-2998 colon
A498 renal = tested on: A498 renal
M14 melanoma = tested on: M14 melanoma

CS(=O)(=O)c1ccc(Cl)c([N+](=O)[O-])c1
GI50 (TK-10 renal): 18.9 µM
TGI (TK-10 renal): 34.4 µM
GI50 (RXF 393 renal): 11.9 µM
TGI (RXF 393 renal): 24.5 µM
GI50 (MALME-3M melanoma): 21 µM
TGI (MALME-3M melanoma): 44.9 µM
GI50 (KM12 colon): 14.8 µM
TGI (KM12 colon): 29.6 µM
GI50 (A549 NSCLC): 19.3 µM
TGI (A549 NSCLC): 41.1 µM
GI50 (SR leukemia): 15.3 µM
TGI (SR leukemia): 46.6 µM
GI50 (HCT-116 colon): 12.9 µM
TGI (HCT-116 colon): 25.7 µM
GI50 (HCC-2998 colon): 11 µM
TGI (HCC-2998 colon): 24 µM
GI50 (A498 renal): 38.6 µM
TGI (A498 renal): > 100 µM
GI50 (M14 melanoma): 17 µM
TGI (M14 melanoma): 31.7 µM

CCOC(=O)c1c(NC(=O)c2ccc(C(C)C)cc2)sc2c(CN(C)C)c(O)ccc12
GI50 (TK-10 renal): 3 µM
TGI (TK-10 renal): 9.39 µM
GI50 (RXF 393 renal): 1.74 µM
TGI (RXF 393 renal): 3.39 µM
GI50 (MALME-3M melanoma): 1.72 µM
TGI (MALME-3M melanoma): 3.22 µM
GI50 (KM12 colon): 1.83 µM
TGI (KM12 colon): 3.45 µM
GI50 (A549 NSCLC): 4.29 µM
TGI (A549 NSCLC): 20.7 µM
GI50 (SR leukemia): 2.09 µM
TGI (SR leukemia): 6.44 µM
GI50 (HCT-116 colon): 1.78 µM
TGI (HCT-116 colon): 3.36 µM
GI50 (HCC-2998 colon): 1.88 µM
TGI (HCC-2998 colon): 3.51 µM
GI50 (A498 renal): 1.86 µM
TGI (A498 renal): 9.02 µM
GI50 (M14 melanoma): 1.77 µM
TGI (M14 melanoma): 3.48 µM

CC(CO)[C@H]1OC(=O)C=C2[C@@]13O[C@@H]3[C@H]1OC(=O)[C@@]3(C)[C@H]4O[C@H]4C[C@@]2(C)[C@@H]13 (stereo not given in full)
TGI (TK-10 renal): > 28.2 µM
TGI (RXF 393 renal): 6.33 µM
TGI (MALME-3M melanoma): 8.46 µM
TGI (KM12 colon): 14.9 µM
TGI (A549 NSCLC): > 39.8 µM
TGI (SR leukemia): 0.982 µM
TGI (HCT-116 colon): > 28 µM
TGI (HCC-2998 colon): 8.58 µM
TGI (A498 renal): > 29.4 µM
TGI (M14 melanoma): > 22.8 µM

CN1CCCN(CCNc2nccc(-c3c(-c4cccc(O)c4)nc4sccn34)n2)S1(=O)=O
GI50 (TK-10 renal): 13 µM and 11.6 µM
TGI (TK-10 renal): 64.6 µM and 73.2 µM
GI50 (RXF 393 renal): 5.26 µM and 2.72 µM
TGI (RXF 393 renal): 31 µM and 21.6 µM
GI50 (MALME-3M melanoma): 0.0583 µM
TGI (MALME-3M melanoma): 3.91 µM
GI50 (KM12 colon): 11.7 µM and 9.82 µM
TGI (KM12 colon): 32.5 µM and 55.8 µM
GI50 (A549 NSCLC): 7.46 µM and 7.71 µM
TGI (A549 NSCLC): 75 µM and > 100 µM
GI50 (SR leukemia): 4.57 µM and 2.85 µM
TGI (SR leukemia): 35.2 µM and 27.8 µM
GI50 (HCT-116 colon): 2.96 µM and 4.39 µM
TGI (HCT-116 colon): 14.9 µM and 18.8 µM
GI50 (HCC-2998 colon): 13.4 µM and 19.4 µM
TGI (HCC-2998 colon): 34.5 µM and > 88.2 µM
GI50 (A498 renal): 5.31 µM and 3.4 µM
TGI (A498 renal): 17.5 µM and 12.6 µM
GI50 (M14 melanoma): 0.17 µM and 0.128 µM
TGI (M14 melanoma): 9.04 µM and 13.2 µM

CCN(CC)c1ccc(NC(=S)NN(C)C)cc1
TGI (TK-10 renal): > 10 µM
TGI (RXF 393 renal): > 10 µM
TGI (MALME-3M melanoma): > 10 µM
TGI (KM12 colon): > 10 µM
TGI (A549 NSCLC): > 10 µM
TGI (SR leukemia): > 10 µM
TGI (HCT-116 colon): > 10 µM
TGI (HCC-2998 colon): > 10 µM
TGI (A498 renal): > 10 µM
TGI (M14 melanoma): > 10 µM

Cc1ccc(C(=O)/C(=C/c2ccc([N+](=O)[O-])cc2)S(=O)Cc2ccccc2)cc1 (stereo not given)
GI50 (TK-10 renal): 1.78 µM
TGI (TK-10 renal): 3.26 µM
GI50 (RXF 393 renal): 1.47 µM
TGI (RXF 393 renal): 3 µM
GI50 (MALME-3M melanoma): 1.69 µM
TGI (MALME-3M melanoma): 3.54 µM
GI50 (KM12 colon): 1.56 µM
TGI (KM12 colon): 3.4 µM
GI50 (A549 NSCLC): 2.26 µM
TGI (A549 NSCLC): 5.66 µM
GI50 (SR leukemia): 0.539 µM
TGI (SR leukemia): 5.21 µM
GI50 (HCT-116 colon): 1.57 µM
TGI (HCT-116 colon): 2.99 µM
GI50 (HCC-2998 colon): 1.78 µM
TGI (HCC-2998 colon): 3.29 µM
GI50 (A498 renal): 1.75 µM
TGI (A498 renal): 3.4 µM
GI50 (M14 melanoma): 1.48 µM
TGI (M14 melanoma): 2.94 µM

Fc1cccc(COc2ccc(Nc3ncnc4sc(-c5ccco5)cc34)cc2Cl)c1
GI50 (TK-10 renal): > 25 µM
TGI (TK-10 renal): > 25 µM
GI50 (RXF 393 renal): > 25 µM
TGI (RXF 393 renal): > 25 µM
GI50 (MALME-3M melanoma): > 25 µM
TGI (MALME-3M melanoma): > 25 µM
GI50 (KM12 colon): > 25 µM
TGI (KM12 colon): > 25 µM
GI50 (A549 NSCLC): > 25 µM
TGI (A549 NSCLC): > 25 µM
GI50 (SR leukemia): > 25 µM
TGI (SR leukemia): > 25 µM
GI50 (HCT-116 colon): > 25 µM
TGI (HCT-116 colon): > 25 µM
GI50 (HCC-2998 colon): > 25 µM
TGI (HCC-2998 colon): > 25 µM
GI50 (A498 renal): > 25 µM
TGI (A498 renal): > 25 µM
GI50 (M14 melanoma): > 25 µM
TGI (M14 melanoma): > 25 µM

CC1(C)C(=O)C(O)=CC2C1=CCC1C2(C)C(=O)CC2(C)C(C(C)(O)C(=O)CC(O)C(C)(C)O)C(O)CC12C (stereo not given)
TGI (TK-10 renal): 5.94 µM
TGI (RXF 393 renal): 5.54 µM
TGI (MALME-3M melanoma): 12.1 µM
TGI (KM12 colon): > 100 µM
TGI (A549 NSCLC): > 74.1 µM
TGI (SR leukemia): 25.3 µM
TGI (HCT-116 colon): 33.7 µM
TGI (HCC-2998 colon): 14 µM
TGI (A498 renal): 4.37 µM
TGI (M14 melanoma): 23.8 µM

CC(C)n1c(/C=C/[C@@H](O)C[C@@H](O)CC(=O)O)c(-c2ccc(F)cc2)c2ccccc21
GI50 (TK-10 renal): 33.7 µM and 7.85 µM
TGI (TK-10 renal): > 100 µM
GI50 (RXF 393 renal): 3.54 µM and 2.12 µM
TGI (RXF 393 renal): > 100 µM and 18.9 µM
GI50 (MALME-3M melanoma): 26.7 µM and 27.4 µM
TGI (MALME-3M melanoma): > 100 µM
GI50 (KM12 colon): 16.6 µM and 21.9 µM
TGI (KM12 colon): > 100 µM
GI50 (A549 NSCLC): 5.93 µM and 6.99 µM
TGI (A549 NSCLC): > 100 µM
GI50 (SR leukemia): 2.16 µM and 2.8 µM
TGI (SR leukemia): > 61.7 µM
GI50 (HCT-116 colon): 1.12 µM and 1.56 µM
TGI (HCT-116 colon): 11.1 µM and > 100 µM
GI50 (HCC-2998 colon): 10.4 µM and 28.4 µM
TGI (HCC-2998 colon): > 100 µM
GI50 (A498 renal): 0.164 µM and 0.219 µM
TGI (A498 renal): 0.527 µM and 0.848 µM
GI50 (M14 melanoma): 19.4 µM and 11.9 µM
TGI (M14 melanoma): > 100 µM

Cc1nc(SCC(N)=O)c2sc(=S)n(-c3ccccc3)c2n1
TGI (TK-10 renal): > 10 µM
TGI (RXF 393 renal): > 10 µM
TGI (MALME-3M melanoma): > 10 µM
TGI (KM12 colon): > 10 µM
TGI (A549 NSCLC): > 10 µM
TGI (SR leukemia): > 10 µM
TGI (HCT-116 colon): > 10 µM
TGI (HCC-2998 colon): > 10 µM
TGI (A498 renal): > 10 µM
TGI (M14 melanoma): > 10 µM

CCOc1ccc(NCC2CC/C(=C\C=C\c3ccccc3)C2=O)cc1 (stereo not given)
TGI (TK-10 renal): > 50.7 µM
TGI (RXF 393 renal): 29.6 µM
TGI (MALME-3M melanoma): 57.8 µM
TGI (KM12 colon): 20.1 µM
TGI (A549 NSCLC): > 100 µM
TGI (SR leukemia): > 33.3 µM
TGI (HCT-116 colon): 20.4 µM
TGI (HCC-2998 colon): > 72.4 µM
TGI (A498 renal): > 100 µM
TGI (M14 melanoma): 29.6 µM

CC[N+]1(C)CCC(O)(c2ccc(C)cc2)C(C(=O)c2ccc(C)cc2)C1 (stereo not given)
TGI (TK-10 renal): 47.5 µM
TGI (RXF 393 renal): 84.9 µM
TGI (MALME-3M melanoma): 52.7 µM
TGI (KM12 colon): > 100 µM
TGI (A549 NSCLC): > 100 µM
TGI (SR leukemia): 39.6 µM
TGI (HCT-116 colon): > 100 µM
TGI (HCC-2998 colon): > 100 µM
TGI (A498 renal): > 100 µM
TGI (M14 melanoma): > 100 µM

Cc1ccc(C(=O)Nc2ccc(CN3CCN(C)CC3)c(C(F)(F)F)c2)cc1C#Cc1cnc(N)c2ccc(F)cc12
GI50 (TK-10 renal): 0.416 µM
TGI (TK-10 renal): 2.72 µM
GI50 (RXF 393 renal): 0.218 µM
TGI (RXF 393 renal): 0.579 µM
GI50 (MALME-3M melanoma): 0.141 µM
TGI (MALME-3M melanoma): 0.597 µM
GI50 (KM12 colon): 0.186 µM
TGI (KM12 colon): 0.778 µM
GI50 (A549 NSCLC): 0.27 µM
TGI (A549 NSCLC): 0.712 µM
GI50 (SR leukemia): 0.262 µM
TGI (SR leukemia): 1.3 µM
GI50 (HCT-116 colon): 0.192 µM
TGI (HCT-116 colon): 0.533 µM
GI50 (HCC-2998 colon): 0.377 µM
TGI (HCC-2998 colon): 0.798 µM
GI50 (A498 renal): 0.327 µM
TGI (A498 renal): 0.961 µM
GI50 (M14 melanoma): 0.0881 µM
TGI (M14 melanoma): 0.441 µM

COc1ccc(-c2cc(-c3ccc(Cl)cc3)c(C#N)c(=O)n2CCCCC(=O)Nc2ccccc2N)cc1
GI50 (TK-10 renal): 27.9 µM
TGI (TK-10 renal): > 100 µM
GI50 (RXF 393 renal): 1.69 µM
TGI (RXF 393 renal): 6.89 µM
GI50 (MALME-3M melanoma): 4.7 µM
TGI (MALME-3M melanoma): 31.1 µM
GI50 (KM12 colon): 5.17 µM
TGI (KM12 colon): > 100 µM
GI50 (A549 NSCLC): 4.94 µM
TGI (A549 NSCLC): > 100 µM
GI50 (SR leukemia): 1.09 µM
TGI (SR leukemia): > 100 µM
GI50 (HCT-116 colon): 3.25 µM
TGI (HCT-116 colon): 20.7 µM
GI50 (HCC-2998 colon): 6.2 µM
TGI (HCC-2998 colon): 79.9 µM
GI50 (A498 renal): 1.79 µM
TGI (A498 renal): 48.9 µM
GI50 (M14 melanoma): 2.58 µM
TGI (M14 melanoma): 8.14 µM

Source: PubChem BioAssay (NCI)
